Source: paper PMC10708468, “New Dipyrroloquinones from a Plant-Derived Endophytic Fungus Talaromyces sp” (Molecules, 2023)
Entries after “also recorded” stand apart in the source; their conditions may differ. Read-outs that look alike come from different tables or passages of the source.

Legend:
[1] = test system: LPS-induced NO production in macrophage RAW264.7 cells; assay: Inhibition of LPS-induced NO production (Griess reaction); type: cell-based; conditions: Mus musculus; for IC50: macrophage RAW264.7 cells, given as IC50, read-out: IC50 inhibition of LPS-stimulated NO production
Description: (§1) RAW264.7 cells were cultured in DMEM with 10% fetal bovine serum (FBS) and 1% penicillin-streptomycin at 37 °C in 5% CO2. The MTT assay was used to evaluate cell viability. RAW264.7 cells were seeded on 96-well plates at 5 × 10^5 cells/well [26]. After incubation with compounds 1–6 at five concentrations ([…]) for 24 h, cells were treated with MTT (5 mg/mL) at 37 °C for 4 h. Then, the supernatant was removed and the […] was crystalised with DMSO. The absorbance was measured at 570 nm. The Griess reaction was applied to measure the accumulation of NO2^− in culture supernatant. RAW264.7 cells were treated with the compounds for 1 h then with the presence of LPS (1 μg/mL) for 24 h. The culture supernatant fluids (50 µL) and Griess reagent (50 µL) were mixed and incubated at room temperature. The absorbance was read at 570 nm after 15 min.

RAW264.7 cells = assay: MTT cell viability of RAW264.7 cells (non-toxic concentrations); type: cell-based; conditions: 24 h
Description: as §1

[2] = test system: human lung cancer cells A549; assay: MTT cytotoxic activity assay, A549; type: cell-based
Description: (§2) The 3-(4,5-dimethyl-2-thiazolyl)-2,5-diphenyl-2-h-tetrazole ammonium bromide (MTT) experiment was applied to test the cytotoxic activity for 1–6 against human lung cancer cells A549 and liver cancer cells Hep G2. Cells in RPMI-1640 medium (10% FBS, 0.4% penicillin–streptomycin solution) were digested with trypsin and diluted to the concentration of 1 × 10^4 cells/mL. The cell suspensions were diluted and added into a 96-well microtiter plate with 200 µL per well. The plate was then incubated in a CO2 incubator at 37 °C. Compounds 1–6 were added to the plate wells after 24 h and incubated for 72 h. Adriamycin (ADM) was used as the positive control, and DMSO as the blank control. The MTT solution was added after 72 h incubation, followed by incubation for 4 h. The cells were successively disrupted with 200 µL of DMSO for 10 min after the supernatant liquid was removed. The absorption was measured at 570 nm.

[3] = test system: liver cancer cells Hep G2; assay: MTT cytotoxic activity assay, Hep G2; type: cell-based; conditions: Homo sapiens
Description: as §2

[4] = test system: PI3K-Akt-mTOR signalling pathway; assay: Western blot analysis of PI3K-Akt-mTOR signalling pathway in A549 cells; type: cell-based, human; conditions: 0.2 and 0.4 μM, 24 h
Description: Considering the significant cytotoxicities of penicillixanthone A (4), we evaluated its plausible molecular mechanism in A549 tumour cells using western blot analysis in Figure 5. Compound 4 (0.2 and 0.4 µM) was firstly pretreated for 24 h to test the PI3K expression.
Figure 5 The protein expression of the PI3K-Akt-mTOR signalling pathway of 4 was evaluated by western blot analysis. A549 cells were treated with 4 (0.2 and 0.4 μM) for 24 h, and the expression levels of PI3K, Akt and mTOR were tested by the responsible antibodies. […] Data are represented as the mean ± SD, n = 3, *** p < 0.01 vs. Control.

[5] = LPS (1 μg/mL)-induced NO production in RAW264.7 cells, 24 h, Griess reaction, read-out: EC50
[6] = A549 cells, MTT, 72 h incubation, read-out: IC50 cytotoxicity A549
[7] = HepG2 cells, MTT, 72 h incubation, read-out: IC50 cytotoxicity HepG2

| SMILES | EC50 [1, 5] | Non-Toxic Concentrations (RAW264.7 cells) | IC50 [2, 6] | IC50 [3, 7] | IC50 [1] | IC50 ([2]; A549 cell line, read-out: IC50 cytotoxic activity A549) | IC50 ([3]; HepG2, Hep G2 cell line, read-out: IC50 cytotoxic activity Hep G2) | EC50 ([1]; RAW264.7, 24 h) | phospho-PI3K expression [4] | phospho-mTOR/Akt expression [4] | expression of PI3K, Akt and mTOR (PI3K-Akt-mTOR signalling pathway) ([4]; p < 0.01 vs. Control) |
| --- | --- | --- | --- | --- | --- | --- | --- | --- | --- | --- | --- |
| Oc1ccc(/C=C/c2cc(O)cc(O)c2)cc1 [resveratrol, reference compound] | 1.6 µM | 0.43 to 109.52 µM | – | – | – | – | – | – | – | – | – |
| CO[C@@H](c1cc2c([nH]1)C(=O)c1cc([C@H](O)C(C)C)[nH]c1C2=O)C(C)C [Compound 2, Talaroterreusinone B] | 30.7 µM | 2.90 to 190.69 µM | 98.8 µM | 84.7 µM | 30.7 µM | – | – | – | – | – | – |
| CO[C@H](c1cc2c([nH]1)C(=O)c1cc([C@H](OC)C(C)C)[nH]c1C2=O)C(C)C [Compound 3, terreusinone D] | 20.6 µM | 2.79 to 279.32 µM | 62.7 µM | 57.4 µM | 20.6 µM | – | – | – | – | – | – |
| COC(=O)[C@]12Oc3ccc(-c4ccc(O)c5c4O[C@@]4(C(=O)OC)C(=C(O)C[C@@H](C)[C@@H]4O)C5=O)c(O)c3C(=O)C1=C(O)C[C@@H](C)[C@@H]2O [Compound 4, penicillixanthone A] | – | – | 0.117 µM | 0.212 µM | – | 0.212 µM | 0.117 µM | 1 µM | decrease the phospho-PI3K expression | significantly suppressed | inhibiting the PI3K-Akt-mTOR signalling pathway; also recorded: inhibited the expression of PI3K, Akt and mTOR |
| COc1cccc2c1C(=O)c1c(O)c3c(c(O)c1C2=O)C[C@@](O)(C(=O)CO)C[C@@H]3O[C@H]1C[C@H](N)[C@H](O)[C@H](C)O1 [adriamycin, Adriamycin, reference compound] | – | – | 3.5 µM | 1.2 µM | – | – | – | – | – | – | – |
| CC(C)C(=O)c1cc2c([nH]1)C(=O)c1cc([C@H](O)C(C)C)[nH]c1C2=O [Compound 1, talaroterreusinone A] | 20.3 µM | 3.04 to 304.87 µM | 133 µM | 111 µM | 20.3 µM | – | – | – | – | – | – |
| CC(O)Cc1cc(O)c2c(c1)C(=O)c1cc(O)cc(O)c1C2=O (centres unmarked) [Compound 5, isorhodoptilometrin] | 121 µM | 3.18 to 318.47 µM | > 150 µM | > 150 µM | – | – | – | – | – | – | – |
| C/C1=C\Cc2c(cc(O)c3c2C[C@@H](C)OC3=O)OC(C)(C)[C@@H](O)CC/C(C)=C/CC1 [Compound 6, chrysomutanin] | 142 µM | 2.41 to 241.54 µM | 42.5 µM | 43.9 µM | – | – | – | – | – | – | – |
